Literature values, collected in patent US20240279190A1, “COMPOUNDS FOR MODULATING PLATELET-TYPE 12-(S)-LIPOXYGENASE AND METHODS OF USE FOR SAME” (The Regents of The University of California, priority 2021, published 2024).

System: human islets
Conditions: 10 μM; different batches of human islets; cited from earlier work

In the case of ML355, the “GSIS effect in a similar experiment” value is given as “comparable results were observed”.
